Experimental data from patent US11840686B2, “Modulation of prekallikrein (PKK) expression” (Ionis Pharmaceuticals, Inc., priority 2013, dated 2023).
Strand notation (5' to 3'): a small letter for the sugar, then the base; units joined by * are phosphorothioate-linked, units joined directly phosphodiester-linked; [ ] holds rarer units or linkages, { } end groups; capitals alone tell only the bases. e = 2'-O-(2-methoxyethyl) (MOE); [5mC] = 5-methylcytosine; d = 2'-deoxy (DNA)

How the values were obtained:
[1] = tested on: captopril and ISIS 461756-induced vascular permeability; assay: Evans Blue vascular permeability in captopril and ISIS 461756-induced angioedema mouse models (Example 11); type: in vivo; details: for OD600 nm of Evans Blue dye, Colons / OD600 nm of Evans Blue dye, Ears / OD600 nm of Evans Blue dye, Feet / OD600 nm of Evans Blue dye, Intestines: captopril Yes
Excerpt: Hereditary angioedema (HAE) is characterized by local swelling and increase in vascular permeability in subcutaneous tissues (Morgan, B. P. N. Engl. J. Med. 363: 581-83, 2010). It is caused by a deficiency of the C1 inhibitor, a protein of the complement system. Two mouse models were used in this study including an established mouse model of C1-INH deficiency and a captopril-induced edema model, both of which cause vascular permeability, a hallmark of HAE. Reversal of vascular permeability is accompanied by increased plasma levels of high molecular weight kininogen (HMWK).
In the first model, angioedema was induced by treatment with Captopril, a known antihypertensive agent, which increases vascular permeability in mice and replicates the pathology of hereditary angioedema.
In the second model, angioedema was induced by treatment with ISIS 461756, an antisense oligonucleotide which targets murine C1 inhibitor mRNA, which increases vascular permeability in mice and replicates the pathology of hereditary angioedema. ISIS 461756 (SEQ ID NO: 2245; […]) is a 5-10-5 MOE gapmer targeting nucleosides 1730-1749 of NM_009776.3 (SEQ ID NO: 2243).
The effect of HOE-140 and ISIS 482584, an antisense oligonucleotide inhibitor of PKK, were evaluated in the Captopril and ISIS 461756-induced mouse models of vascular permeability. Some of the murine groups were treated with HOE-140, a selective antagonist of the bradykinin B2 receptor, which blocks vasodilation and vascular permeability (Cruden and Newby, Expert Opin. Pharmacol. 9: 2383-90, 2008). Other mice were treated with ISIS 482584, which inhibits PKK mRNA expression. The effect of treatment with HOE-140 was compared with the effect of treatment with ISIS 482584.
Group 1 consisted of 4 C57BL/6J-Tyrc-2J mice treated with PBS administered subcutaneously twice a week for 4 weeks. No other treatment was administered to Group 1 which served as a control group to measure the basal level of vascular permeability.
Group 2 consisted of 8 C57BL/6J-Tyrc-2J mice treated with PBS administered subcutaneously twice a week for 4 weeks. At the end of the treatment, the mice were intraperitoneally administered 20 μg of captopril. Group 2 served as a PBS control group for captopril-induced vascular permeability.
(§1) Group 3 consisted of 8 C57BL/6J-Tyrc-2J mice treated with PBS administered subcutaneously twice a week for 4 weeks. On day 14, the mice were treated with 50 mg/kg of the antisense oligonucleotide targeting C1 inhibitor, ISIS 461756, administered subcutaneously twice a week for 2 weeks. At the end of the treatment period, the mice were intraperitoneally administered 20 μg of captopril. Group 3 served as a PBS control group for captopril and ISIS 461756-induced vascular permeability.
Group 4 consisted of 8 C57BL/6J-Tyrc-2J mice treated with PBS administered subcutaneously twice a week for 4 weeks. On day 14, the mice were treated with 50 mg/kg of the antisense oligonucleotide targeting C1 inhibitor, ISIS 461756, administered subcutaneously twice a week for 2 weeks. At the end of the treatment period, the mice were intraperitoneally administered 20 μg of captopril. The mice were then also intraperitoneally administered 30 μg of HOE-140. Group 4 served as a positive control for inhibition of vascular permeability with HOE-140.
as §1, with “5” for “3”, “40 mg/kg of control oligonucleotide ISIS 141923, a 5-10-5 MOE gapmer with no known murine target, ([…]; SEQ ID NO: 2246)” for “PBS”, “a” for “a PBS”, “permeability. […]” for “permeability.”

vascular leakage = assay: Vascular leakage, plasma Evans Blue OD620, captopril model (Example 13); type: in vivo, mouse; details: for Percentage of OD620 nm of Evans Blue dye compared to the PBS basal control, Plasma: captopril Yes
Description: Groups 4, 5, 6, 7, 8, and 9 consisted of 8 mice each and were treated with 2.5 mg/kg, 5 mg/kg, 10 mg/kg, 20 mg/kg, 40 mg/kg, or 80 mg/kg (corresponding to 5 mg/kg, 10 mg/kg, 20 mg/kg, 40 mg/kg, 80 mg/kg, or 160 mg/kg per week), respectively of ISIS 482584 administered subcutaneously twice a week for 3 weeks. At the end of the treatment period, the mice of all the groups were intraperitoneally administered 20 μg of captopril. Groups 4-9 served as the experimental treatment groups for examining the effect of varying doses of ISIS 482584 on captopril-induced vascular permeability.
All the groups were then injected with 30 mg/kg of Evans Blue solution in the tail vein. The mice were sacrificed 30 min after the Evans Blue solution administration and colons, feet, ears, and intestines were harvested. Blood samples were taken through cardiac puncture.
The blood drawn through cardiac puncture was immediately mixed with 3 times the volume of ice-cold ethanol. The solution was centrifuged at 15,000 g for 20 minutes at 4° C. to remove cell debris and precipitated plasma proteins. The ethanol extracts were further purified by ultra-filtration through a 10 kDa MWCO filter. The color intensity of the ethanol extracted plasma solution was then measured at OD620 nm. The results are presented in Table 67 as percentage increase or decrease of the OD values of the Group 1 PBS control.

[2] = ISIS 461756 No, 40 mg/kg sc twice a week 4 weeks
[3] = ISIS 461756 Yes, ISIS oligonucleotides 40 mg/kg sc twice a week 4 weeks, HOE-140 30 μg ip

Compound	vascular permeability ([1]; 40 mg/kg s.c. twice a week for 4 weeks, mice treated with captopril or captopril and ISIS 461756, vs PBS controls)	OD600 nm of Evans Blue dye, Colons [1, 2]	OD600 nm of Evans Blue dye, Ears [1, 2]	OD600 nm of Evans Blue dye, Feet [1, 2]	OD600 nm of Evans Blue dye, Intestines [1, 2]	OD600 nm of Evans Blue dye, Colons [1, 3]	OD600 nm of Evans Blue dye, Ears [1, 3]	OD600 nm of Evans Blue dye, Feet [1, 3]	OD600 nm of Evans Blue dye, Intestines [1, 3]	vascular leakage (vascular leakage; 160 mg/kg/week and 80 mg/kg/week, vs PBS negative control treated with captopril)	Percentage of OD620 nm of Evans Blue dye compared to the PBS basal control, Plasma (vascular leakage; dose 5 mg/kg) [%]	Percentage of OD620 nm of Evans Blue dye compared to the PBS basal control, Plasma (vascular leakage; dose 10 mg/kg) [%]	Percentage of OD620 nm of Evans Blue dye compared to the PBS basal control, Plasma (vascular leakage; dose 20 mg/kg) [%]	Percentage of OD620 nm of Evans Blue dye compared to the PBS basal control, Plasma (vascular leakage; dose 40 mg/kg) [%]	Percentage of OD620 nm of Evans Blue dye compared to the PBS basal control, Plasma (vascular leakage; dose 80 mg/kg) [%]	Percentage of OD620 nm of Evans Blue dye compared to the PBS basal control, Plasma (vascular leakage; dose 160 mg/kg) [%]	Percentage of OD620 nm of Evans Blue dye compared to the PBS basal control, Plasma (vascular leakage; HOE-140 30 μg ip) [%]
ISIS 482584: 5-10-5 MOE gapmer targeting murine PKK, GGCATATTGGTTTTTGGAAT; SEQ ID NO: 2244 (antisense eG*eG*e[5mC]*eA*eT*dA*dT*dT*dG*dG*dT*dT*dT*dT*dT*eG*eG*eA*eA*eT)	prevents vascular permeability	0.27	0.14	0.07	0.30	0.21	0.06	0.07	0.34	less vascular leakage	−23	−20	−26	−31	40	91	–
NC(N)=NCCC[C@@H](N)C(=O)N[C@@H](CCCN=C(N)N)C(=O)N1CCC[C@H]1C(=O)N1C[C@H](O)C[C@H]1C(=O)NCC(=O)N[C@@H](Cc1cccs1)C(=O)N[C@@H](CO)C(=O)N1Cc2ccccc2C[C@@H]1C(=O)N1[C@H](C(=O)N[C@@H](CCCN=C(N)N)C(=O)O)C[C@@H]2CCCC[C@@H]21 [HOE-140, Icatibant, reference compound]	–	–	–	–	–	0.14	0.09	0.07	0.18	–	–	–	–	–	–	–	5
